Where two headings read alike, the source gives them in different places.
Key:
[1] = pKa by UV-metric and potentiometric titration; type: physicochemical
From the text: The pKa experiments have been performed by both UV-metric (in aqueous) and potentiometric method (in methanol cosolvents). Nine titrations have been performed for the compound, all from low to high pH (2.0-12.0).

[2] = Caco-2 bi-directional permeability, absence and presence of P-gp inhibitor verapamil; type: in vitro ADME; settings: human; Caco-2, P-gp inhibitor absent
Description: (§1) The Caco-2 bi-directional permeability of the compound of Example 1 was evaluated in the absence and presence of a known P-gp inhibitor, verapamil.

Caco-2 = assay: as above; type: in vitro ADME
Description: as §1

[3] = pH-solubility curve in citrate-phosphate buffers; type: physicochemical; settings: free base, FIG. 1
From the text: A pH-solubility curve was generated for the compound of Example 1 in citrate-phosphate buffers to evaluate the effect of pH on solubility of the free base material.

[4] = Phase 1 Part 2, multiple ascending dose pharmacokinetics (7 days, q8h); type: in vivo, human; settings: for Cmax / AUC(0-t) / Tmax / AUC / half-life / concentration at 8 h: human, plasma, oral; for AUC(0-t): read-out: AUC0-8; for concentration at 8 h: read-out: Ctau
Description: Part 2 of the study evaluated the safety, tolerability, PK, and PD of multiple ascending doses of the compound of Example 1. Twelve subjects were administered a 7-day course of the compound of Example 1 (n=10 subjects/cohort received the API and n=2 subjects/cohort received matching placebo) according to the following dose regimens: 100 mg of the compound of Example 1 or placebo every 8 hours (q8h) in Cohort 1; 200 mg of the compound of Example 1 or placebo q8h in Cohort 2; 400 mg of the compound of Example 1 or placebo q8h in Cohort 3 and 800 mg of the compound of Example 1 or placebo q8h in Cohort 4.
A total of 48 subjects were enrolled in Part 2 of the Study and 47 subjects completed the study. A summary of pharmacokinetic parameters for the compound of Example 1 for the first dose on Day 1 and last dose on Day 7 is presented in Table 17. […] Day 7 geometric mean exposure (AUCtau and Cmax) did increase with increasing dose. Drug exposure was dose proportional through 400 mg three times a day. At 400 mg three times a day, pre-dose geometric mean drug levels and coefficient of variation (CV) on day 7 were 28.6 ng/ml and 77% and post-dose geometric mean maximum drug levels and CV were 152 ng/ml and 57%. Plasma concentrations of the compound of Example 1 over 25 ng/ml are expected to be efficacious in treating conditions such as, but not limited to, HAE and AAE.

plasma kallikrein = target: T1, plasma kallikrein (Homo sapiens, UniProt P03952); assay: Plasma kallikrein activity in subject samples, contact activation assay with fluorogenic substrate; type: in vivo
T1 construct: normal levels of C1INH present in healthy subject plasma samples; from tissue; host or cells: plasma samples of healthy human subjects
Description: Plasma kallikrein activity was assessed in subject samples with an exploratory contact activation assay using a fluorogenic artificial substrate for kallikrein. In this assay, the contact pathway is activated by addition of ellagic acid, and amidolytic activity is measured. Results are expressed as percent inhibition compared to subject baseline samples and reflect inhibition additional to that resulting from the activity of normal levels of C1INH present in healthy subject plasma samples. Analysis of plasma kallikrein activity following single doses of the compound of Example 1 was performed through 12 hours postdose. […] The time course of inhibition generally followed the plasma pharmacokinetics of the compound. The greatest effect was seen around the time of Cmax. Plasma kallikrein inhibition largely returned to baseline at 12 hours postdose, when plasma concentrations of the compound of Example 1 were low (generally <10 ng/mL).
Plasma kallikrein activity profiles were measured in Part 2 subjects on day 7 of dosing and the results were expressed as percent inhibition compared to the activity present in the Day 1 predose plasma sample. […] Kallikrein inhibition was observed through the last dosing interval on day 7 compared to placebo (p<0.0001).

[5] = 400 mg three times a day, day 7
[6] = 100 mg, Day 1, 100 mg q 8 h, GM
[7] = 100 mg, Day 1, 100 mg q 8 h, Median
[8] = 100 mg, Day 7, 100 mg q 8 h, GM
[9] = 100 mg, Day 7, 100 mg q 8 h, Median
[10] = 200 mg, Day 1, 200 mg q 8 h, GM
[11] = 200 mg, Day 1, 200 mg q 8 h, Median
[12] = 200 mg, Day 7, 200 mg q 8 h, GM
[13] = 200 mg, Day 7, 200 mg q 8 h, Median
[14] = 400 mg, Day 1, 400 mg q 8 h, GM
[15] = 400 mg, Day 1, 400 mg q 8 h, Median
[16] = 400 mg, Day 7, 400 mg q 8 h, GM
[17] = 400 mg, Day 7, 400 mg q 8 h, Median
[18] = 800 mg, Day 1, 800 mg q 8 h, GM
[19] = 800 mg, Day 1, 800 mg q 8 h, Median
[20] = 800 mg, Day 7, 800 mg q 8 h, GM
[21] = 800 mg, Day 7, 800 mg q 8 h, Median

T1 sequence (P03952 391-638 limits assumed): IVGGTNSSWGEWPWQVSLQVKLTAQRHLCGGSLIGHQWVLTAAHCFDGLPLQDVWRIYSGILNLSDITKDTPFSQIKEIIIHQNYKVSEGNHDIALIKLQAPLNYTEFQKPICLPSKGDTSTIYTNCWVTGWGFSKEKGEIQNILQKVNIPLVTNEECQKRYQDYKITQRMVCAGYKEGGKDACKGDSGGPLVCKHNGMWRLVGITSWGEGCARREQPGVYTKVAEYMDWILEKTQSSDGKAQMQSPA
T1 sequence (P03952 20-390 partner limits assumed): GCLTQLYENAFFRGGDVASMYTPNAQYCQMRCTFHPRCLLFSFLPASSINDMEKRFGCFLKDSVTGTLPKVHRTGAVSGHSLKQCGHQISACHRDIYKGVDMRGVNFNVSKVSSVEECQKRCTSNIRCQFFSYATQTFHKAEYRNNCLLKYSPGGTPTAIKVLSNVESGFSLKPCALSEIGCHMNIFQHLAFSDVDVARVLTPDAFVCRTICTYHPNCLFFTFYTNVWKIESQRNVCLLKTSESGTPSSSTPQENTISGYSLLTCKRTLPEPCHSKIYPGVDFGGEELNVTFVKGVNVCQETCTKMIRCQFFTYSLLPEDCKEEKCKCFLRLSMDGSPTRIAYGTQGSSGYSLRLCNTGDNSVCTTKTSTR

For `C=Cc1cc(C(=O)Nc2ccc(C(=N)N)cc2)c(-c2ccc(C(=O)NCC3CC3)nc2C(=O)O)cc1OC` [Example 1, 3-[2-(4-carbamimidoyl-phenylcarbamoyl)-5-methoxy-4-vinyl-phenyl]-6-(cyclopropylmethyl-carbamoyl)-pyridine-2-carboxylic acid], which pKa ([1]; aqueous (UV-metric), methanol cosolvents (potentiometric), no higher pKa observed by potentiometric method, read-out: higher pKa as reported) is on record?
Its pKa is > 11.

What about the pKa ([1]; aqueous (UV-metric), methanol cosolvents (potentiometric), no lower pKa observed by potentiometric method, read-out: lower pKa as reported) of the same compound?
The pKa was < 3.

And the pKa ([1]; aqueous, UV-metric method, aqueous, read-out: lower pKa)?
The pKa was 2.31 ± 0.15.

What about the Papp A→B [2] of the same compound?
The Papp A→B was 0.5 ×10⁻⁶ cm/s.

And the Papp B→A [2]?
The Papp B→A was 0.5 ×10⁻⁶ cm/s.

What about the efflux ratio [2] of the same compound?
Its efflux ratio is 0.9.

And the permeability class (Caco-2; Caco-2 bi-directional)?
Its permeability class is “low permeability compound”.

And the P-gp substrate (Caco-2; Caco-2 with and without verapamil)?
The P-gp substrate was “does not appear to be a substrate of P-gp”.

What about the “effect of pH on aqueous solubility” value [3] of the same compound?
Its value is “not a significant effect”.

And the “post-dose geometric mean maximum drug level” value [4, 5]?
The value was 152 ng/mL.

And the “pre-dose geometric mean drug level” value [4, 5]?
The value was 28.6 ng/mL.

What about the “accumulation in Cmax and AUC after repeated dosing compared to first day” value ([4]; 7 days q8h) of the same compound?
Its value is “approximately 30%”.

And the Ctau ([4]; Day 7, 100 mg q 8 h, GM)?
The Ctau was 8.34 ng/mL.

And the “DN AUCtau” value ([4]; Day 7, 100 mg q 8 h, GM)?
Its value is 2.37 ng·h/mL/mg.

And the Ctau ([4]; Day 7, 100 mg q 8 h, Median)?
Its Ctau is 7.92 ng/mL.

And the “DN AUCtau” value ([4]; Day 7, 200 mg q 8 h, GM)?
Its value is 1.58 ng·h/mL/mg.

What about the “DN AUCtau” value ([4]; Day 7, 400 mg q 8 h, GM) of the same compound?
Its value is 1.34 ng·h/mL/mg.

And the Ctau ([4]; Day 7, 800 mg q 8 h, GM)?
The Ctau was 23.7 ng/mL.

What about the “DN AUCtau” value ([4]; Day 7, 800 mg q 8 h, GM) of the same compound?
Its value is 0.847 ng·h/mL/mg.

What about the Ctau ([4]; Day 7, 800 mg q 8 h, Median) of the same compound?
Its Ctau is 30.3 ng/mL.

What about the “time of maximal concentrations postdose” value ([4]; across dosing days and cohorts) of the same compound?
Its value is “approximately 2 hours”.

What about the Cmax [4, 6] of the same compound?
The Cmax was 54.5 ng/mL.

What about the AUC(0-t) [4, 6] of the same compound?
The AUC(0-t) was 173 ng·h/mL.

And the Cmax [4, 7]?
The Cmax was 49.4 ng/mL.

And the Tmax [4, 7]?
The Tmax was 1 h.

What about the AUC(0-t) [4, 7] of the same compound?
The AUC(0-t) was 185 ng·h/mL.

What about the AUC [4, 8] of the same compound?
The AUC was 237 ng·h/mL.

What about the Cmax [4, 8] of the same compound?
The Cmax was 72.6 ng/mL.

And the half-life ([4]; 100 mg, Day 7, 100 mg q 8 h, GM, read-out: t1/2 (converted))?
The half-life was 12.4 h.

And the AUC [4, 9]?
Its AUC is 246 ng·h/mL.

What about the Cmax [4, 9] of the same compound?
Its Cmax is 71.2 ng/mL.

And the Tmax [4, 9]?
The Tmax was 2 h.

And the half-life ([4]; 100 mg, Day 7, 100 mg q 8 h, Median, read-out: t1/2 (converted))?
Its half-life is 11.5 h.

And the Cmax [4, 10]?
Its Cmax is 72 ng/mL.

What about the AUC(0-t) [4, 10] of the same compound?
Its AUC(0-t) is 236 ng·h/mL.

What about the Cmax [4, 11] of the same compound?
Its Cmax is 89.7 ng/mL.

And the Tmax [4, 11]?
Its Tmax is 2 h.

And the AUC(0-t) [4, 11]?
Its AUC(0-t) is 251 ng·h/mL.

And the AUC [4, 12]?
The AUC was 316 ng·h/mL.

What about the Cmax [4, 12] of the same compound?
The Cmax was 83.6 ng/mL.

And the concentration at 8 h [4, 12]?
The concentration at 8 h was 12.9 ng/mL.

What about the half-life ([4]; 200 mg, Day 7, 200 mg q 8 h, GM, read-out: t1/2 (converted)) of the same compound?
The half-life was 12.6 h.

What about the AUC [4, 13] of the same compound?
The AUC was 385 ng·h/mL.

And the Cmax [4, 13]?
The Cmax was 92.3 ng/mL.

And the Tmax [4, 13]?
The Tmax was 2 h.

What about the concentration at 8 h [4, 13] of the same compound?
The concentration at 8 h was 13 ng/mL.

What about the half-life ([4]; 200 mg, Day 7, 200 mg q 8 h, Median, read-out: t1/2 (converted)) of the same compound?
Its half-life is 13.5 h.

And the Cmax [4, 14]?
Its Cmax is 119 ng/mL.

What about the AUC(0-t) [4, 14] of the same compound?
Its AUC(0-t) is 421 ng·h/mL.

What about the Cmax [4, 15] of the same compound?
Its Cmax is 124 ng/mL.

What about the Tmax [4, 15] of the same compound?
Its Tmax is 2 h.

What about the AUC(0-t) [4, 15] of the same compound?
Its AUC(0-t) is 395 ng·h/mL.

What about the AUC [4, 16] of the same compound?
Its AUC is 534 ng·h/mL.

What about the Cmax [4, 16] of the same compound?
Its Cmax is 152 ng/mL.

And the concentration at 8 h [4, 16]?
Its concentration at 8 h is 17.4 ng/mL.

What about the half-life ([4]; 400 mg, Day 7, 400 mg q 8 h, GM, read-out: t1/2 (converted)) of the same compound?
The half-life was 13 h.

What about the AUC [4, 17] of the same compound?
Its AUC is 463 ng·h/mL.

And the Cmax [4, 17]?
The Cmax was 129 ng/mL.

And the Tmax [4, 17]?
The Tmax was 2 h.

And the concentration at 8 h [4, 17]?
Its concentration at 8 h is 14.6 ng/mL.

And the half-life ([4]; 400 mg, Day 7, 400 mg q 8 h, Median, read-out: t1/2 (converted))?
The half-life was 12.7 h.

What about the Cmax [4, 18] of the same compound?
Its Cmax is 143 ng/mL.

And the AUC(0-t) [4, 18]?
Its AUC(0-t) is 504 ng·h/mL.

What about the Cmax [4, 19] of the same compound?
Its Cmax is 153 ng/mL.

And the Tmax [4, 19]?
Its Tmax is 2 h.

And the AUC(0-t) [4, 19]?
The AUC(0-t) was 581 ng·h/mL.

What about the AUC [4, 20] of the same compound?
Its AUC is 678 ng·h/mL.

And the Cmax [4, 20]?
Its Cmax is 187 ng/mL.

And the half-life ([4]; 800 mg, Day 7, 800 mg q 8 h, GM, read-out: t1/2 (converted))?
The half-life was 7.46 h.

What about the AUC [4, 21] of the same compound?
The AUC was 835 ng·h/mL.

What about the Cmax [4, 21] of the same compound?
Its Cmax is 240 ng/mL.

And the Tmax [4, 21]?
The Tmax was 2 h.

What about the half-life ([4]; 800 mg, Day 7, 800 mg q 8 h, Median, read-out: t1/2 (converted)) of the same compound?
Its half-life is 8.03 h.

And the half-life ([4]; calculated over a 24 hour period, read-out: terminal elimination half-life (converted))?
Its half-life is ~10 h.

And the “Kallikrein inhibition compared to Day 1 predose” value (plasma kallikrein; beginning and end of the dosing interval on Day 7, two highest dose cohorts (400, 800 mg q8h), FIG. 11)?
Its value is 30-40%.

And the “change of plasma kallikrein activity in comparison to placebo” value (plasma kallikrein; single doses of 50-250 mg)?
The value was “modest but real changes”.
